How the values were obtained:
Tregs = experiment: Treg % in blood and spleen after topical vitamin D3 analogs; format: in vivo, mice; conditions: topical 0.04 nmol/ear
Excerpt: FIGS. 10A-10B comprise bar graphs illustrating data derived from topically treating mice with EtOH or EB1089 (0.04 nmol/ear) for 5 days and bleeding them on Day 7. Treg % from (FIG. 10A) blood and (FIG. 10B) spleen are illustrated. N=3 mice/group. *p<0.01 by Student t-test.
(§1) VDR stimulation of keratinocytes led to TSLP production, which in certain embodiments caused increase in Treg numbers. The effects of two vitamin D3 analogs (22-Oxacalcitriol, also known as 22-OXA, and EB1089) on TSLP production and Treg numbers were evaluated. Similarly to MC903, 22-OXA and EB1089 were applied to the ear skin bilaterally at a dose of 2 nmol/ear dissolved in ethanol. After 5 days of treatment, the mice were bled and serum TSLP levels were measured. […] To avoid the toxic effect, the dose of 22-OXA and EB1089 was lowered to a point where morbidity and mortality of mice was not observed (0.4 nmol/ear for 22-OXA; 0.04 nmol/ear for EB1089). At this dose, no increase in TSLP level was detected in 22-OXA-treated mice (FIG. 9B).

TSLP = experiment: Systemic TSLP induction by topical vitamin D3 analogs (ELISA); format: in vivo, mice; conditions: for serum TSLP levels: topical, ear skin bilaterally, 2 nmol/ear in ethanol, after 5 days of treatment
[1] = Toxicity (morbidity and mortality) of topical vitamin D3 analogs in mice; format: in vivo; conditions: for dose at which morbidity and mortality of mice was not observed: topical; for toxicity at 2 nmol/ear: topical 2 nmol/ear
Protocol: as §1

Row | Compound | blood Tregs (Tregs) | splenic Treg numbers (Tregs) | TSLP level at 0.04 nmol/ear (TSLP; topical 0.04 nmol/ear) | serum TSLP levels (TSLP) | dose at which morbidity and mortality of mice was not observed [1] [nmol/ear] | toxicity at 2 nmol/ear [1] | TSLP level at 0.4 nmol/ear (TSLP; topical 0.4 nmol/ear)
1 | C=C1/C(=C\C=C2/CCC[C@]3(C)[C@@H]([C@H](C)/C=C/C=C/C(O)(CC)CC)CC[C@@H]23)C[C@@H](O)C[C@@H]1O [EB1089, 1(S),3(R)-dihydroxy-20(R)-(5′-ethyl-5′-hydroxy-hepta-1′(E),3′(E)-dien-1′-yl)-9,10-secopregna-5(Z),7(E),10(19)-triene] | only a subtle increase | did not have any effect | some TSLP was detectable | induced detectable amounts of TSLP | 0.04 | toxicity-related morbidity and mortality | –
2 | C=C1/C(=C\C=C2/CCC[C@]3(C)[C@@H]([C@H](C)OCCC(C)(C)O)CC[C@@H]23)C[C@@H](O)C[C@@H]1O [22-OXA, 22-oxa-1α,25(OH)2D3] | – | – | – | induced detectable amounts of TSLP | 0.4 | toxicity-related morbidity and mortality | no increase
